Key:
Format in all cases: in vivo, zebrafish (Danio rerio)
[1] = test system: β-Pix MO-induced hemorrhage in zebrafish; test: βPix morpholino-induced hemorrhage in zebrafish, rescue by drugs
Protocol: Morpholino oligonucleotides (MOs) were custom-synthesized by Gene Tools (Carvalis, Oreg.); their sequences are shown in Table 1.
(§1) Danieau buffer (58 mM NaCl, 0.7 mM KCl, 0.4 mM MgSO4, 0.6 mM Ca(NO3)2, 5.0 mM HEPES, pH 7.6) was used to dilute the MO solutions to 0.2 mM final concentration. Individual wells were placed on a 1.0% agarose plate, in which the embryos were positioned. Afterwards, the MO solution was injected through the cell yolk into embryos of 1 to 4 cell-stage. The injected quantities varied from 0.5 to 15 ng.
bbhm292 zebrafish mutant has a hypomorphic mutation in βPix, resulting in ICH/BMH and hydrocephalus. The MO is βPixexon6-MO which blocks splicing of exon 6 and results in premature protein termination. […] Higher doses of βPixexon6-MO (up to 8 ng) result in a lack of blood circulation, and therefore no ICH/BMH was detected. Injection of 8 ng results in complete missplicing of βPix and therefore a null phenotype, whereas lower doses retain some normally spliced βPix. The βPixexon6-MO sequence is 5′-[…]-3′ [SEQ ID NO: 1]. 3Pixexon6-MO was injected into the embryos at the 1-2 cell stage, and compounds were added 12 hpf.
(§2) The first three morpholino pairs were good for the efficacy study. Efficacy assays were performed using Artemether (ARM, Sigma) and artemesunate (ART, GMP). […] Treating these morphants with the drugs rescued the ICH phenotype.

[2] = test system: Pak2a - exon8 morpholino-induced hemorrhage in zebrafish; test: Pak2a morpholino-induced hemorrhage in zebrafish, rescue by drugs; details: Danio rerio; Table 6
Protocol: as §1
Another MO was designed to block the splice-donor sites after exon 8 in pak2a. Pak2a is the gene mutated in the rhdmi149 zebrafish mutant that develops ICH/BMH.
Efficacy assays were performed using Artemether (ARM, Sigma) and artemesunate (ART, GMP).

[3] = test system: Hmgcrb - splice morpholino-induced hemorrhage in zebrafish; test: Hmgcrb morpholino-induced hemorrhage in zebrafish, rescue by drugs; details: Danio rerio; Table 6
Protocol: as §1, §2

[4] = test system: Cdh5 - exon2 morpholino-induced hemorrhage in zebrafish; test: Cdh5 (VE-cadherin) morpholino-induced hemorrhage in zebrafish, rescue by drugs; details: result in words, no EC50
Protocol: as §1
Panels A & B: Stable EC junctions are maintained by a Cdc42-dependent and VE-cadherin-mediated cell-cell adhesion. VE cadherins are found on the surfaces of EC cell-cell junctions. VE-cadherins are associated with β- and α-catenins at their cytoplasmic domains, which connect them to the actin-based cytoskeleton (blue circles). Cdc42 belongs to the Rho-family of small guanosine triphosphatases (GTPases), which are the main regulators of VE-cadherin-based cell-cell adhesion. The functions of hmgcrb, βPix, and pak2a in regulating junctional stability in zebrafish are shown. HNGCR mediated GGPP biosynthesis regulates Cdc42 prenylation. βPix is a GEF that increases CDC42 affinity for GTP. Pak2 is an effector of Cdc42, which regulates actin filament organization.
Suppression of VE-cadherin induces hemorrhage.

`CO[C@H]1O[C@@H]2O[C@@]3(C)CC[C@H]4[C@H](C)CC[C@@H]([C@H]1C)[C@@]24OO3` [Artemether] was tested, and the EC50 ([1]; Danio rerio, Table 6, read-out: EC50 to rescue hemorrhage induced by βPix - exon6 morpholino) was 51.6 ± 11.7 nM, the “Efficacy on β-Pix MO Hemorrhage” value ([1]; inhibition of β-Pix MO-induced hemorrhage) was “+++++ (One + sign represents 20% inhibition on 1 μmol/L ATV or β-Pix MO-induced hemorrhage.)” and the EC50 [2] was 39.1 ± 8 nM. For the same compound, the EC50 [3] was 62.5 ± 8.3 nM, the “Rescue of hemorrhage induced by Cdh5 - exon2 morpholino” value ([4]; listed as ARM) was “rescue was observed” and the “Rescue of hemorrhage induced by Cdh5 - exon2 morpholino” value ([4]; listed as ARM (Sigma)) was “Rescue effect”.
